Data reported in patent publication US10174013B2, “Benzimidazole derivatives as kinase inhibitors” (SELVITA S.A., priority 2012, dated 2019).
Structures can show the parent of a compound that is named as a salt.

How the values were obtained:
[1] = test system: Pim kinase biomarkers in MOLM16 cells; assay: Pim-kinase biomarkers in MOLM16 cells; type: cell-based, Human; settings: 0.1-2.5 μM, 4 and 24 h
Experimental: The efficacy of compound 1BI on Pim kinase-inhibition was also tested in MOLM16 cells (an acute myeloid leukemia cell line). The cells were treated with compound 1BI at concentrations of 0.1, 0.25, 0.5, 1 and 2.5 μM for 4 and 24 h. The positive controls Ref. A (SGI-1776, see above) and Ref. B (Sunitinib, see above) were used at 5 μM concentration. DMSO (Dimethyl sulfoxide) was used as a negative control. The levels of the following classical Pim-1 kinase biomarkers were assessed: c-myc, phospho-4EBP1 (Scr65, Thr37&46) and phosphorylated S6 (Scr235/236). […] The levels of a pro-apoptotic biomarker were assessed; induction of apoptosis, presented as an appearance and increased expression of cleaved form of PARP protein, was observed. Levels of tubulin were assessed as a reference loading control.

[2] = test system: MOLM16 xenograft; assay: MOLM16 xenograft in immunocompromised mice; type: in vivo; settings: 100 mg/Kg QD
Source text: Several compounds of the present invention have been studied in a xenograft in mice, an in vivo tumor transplantation model used to investigate the factors involved in malignant transformation, invasion and metastasis, as well as to examine response to therapy. For the purpose of acceptance of donor leukemic cells (MV4-11 or MOLM16 cells), immunocompromised mice were used, namely particularly severely compromised immunodeficient mice (NOD/scid, SCID/beige). When tumors developed size of approx. 50-200 mm^3, the compounds as indicated below in Tables 3 and 3a were administered orally every day for 2-3 weeks, in once a day (QD) or twice a day (BID) schedule. During the course of the experiment, the mice were monitored and the following two parameters were measured: the tumor growth inhibition (TGI) factor as a measure of therapeutic efficacy and the body weight change (ΔBW) factor as a measure of possible compound toxicity. The results are depicted in Tables 3 and 3a.
Additionally, compound 2A, together with other examples was tested in MOLM16 cells xenografted into immunocompromised mice.

Row | SMILES | induction of apoptosis (cleaved form of PARP protein) [1] | levels of c-myc protein [1] | levels of phosphorylated 4EBP1 (Ser65 and Thr37/46) [1] | levels of phosphorylated S6 [1] | ΔBW (body weight change) [2] [%] | TGI (tumor growth inhibition) ([2]; hydrochloride) [%]
1 | CC(C)n1c(N2CC[C@@H](N)C2)nc2c(C#N)c(Br)c(Br)cc21 [Example 1BI] | observed | downregulated | downregulated | diminished completely | – | –
2 | CC(C)n1c(N2CCNCC2)nc2c([N+](=O)[O-])c(Br)c(Br)cc21 [Example 2A, 5,6-dibromo-4-nitro-2-(piperazin-1-yl)-1-(propan-2-yl)-1H-1,3-benzodiazole hydrochloride] | – | – | – | – | −8.6 | >99
